Source: US12187758B2 (ROME Therapeutics, Inc., priority 2022, dated 2025)

What was measured:
[1] = tested on: interferon-stimulated gene (ISG) response; experiment: In vivo decitabine challenge model in C57BL/6 mice; details: kidneys, decitabine i.p. 5 mg/kg, compound 1, 10, 100 mg/kg p.o. once a day
Procedure: Exemplary compounds were tested for ability to alter the interferon-stimulated gene (ISG) response in C57BL/6 mice treated with decitabine. Assay procedures and results are described below. Twenty 9-11 week old C57BL/6 mice were acclimated to the lab for at least 5 days. Compound 23 was prepared in a 0.5% methylcellulose solution for p.o. administration. Decitabine (Sigma-Aldrich) was dissolved in sterile PBS (pH 7.4) and dosed within 30 minutes of preparation of the solution. Doses of both the compound and decitabine were administered once a day, every day from Day 0 to Day 4. […] The fold changes in interferon-stimulated gene (ISG) expression was calculated by first normalizing to GAPDH gene using the Delta CT method. The CT (gene of interest) —CT (reference gene) was calculated to generate a delta CT for all samples. […] The fold changes in interferon-stimulated gene (ISG, specifically IRF7 and MX1) expression was calculated by first normalizing to GAPDH gene using the Delta CT method. The CT (gene of interest)−CT (reference gene) was calculated to generate a delta CT for all samples. The fold change was then calculated by taking the […](Delta CT(control)−Delta CT (experimental). The control in this example was the PBS control animal group. Individual primers were used to amplify target genes.

[2] = tested on: interferon-stimulated gene (ISG) response; experiment: B6/JGpt-Trex1em1Cd1194/Gpt mouse model (ISG score); format: in vivo; details: B6/JGpt-Trex1em1Cd1194/Gpt mice, 100 mg/kg p.o. daily for 5 days
Procedure: Exemplary compounds were tested for the ability to alter the interferon-stimulated gene (ISG) response in a B6/JGpt-Trex1em1Cd1194/Gpt mouse model. Assay procedures and results are described below.
Nine 8-10 week old B6/JGpt-Trex1em1Cd1194/Gpt mice were acclimated to the lab for at least 5 days. Compound 2 was prepared daily in a 20% PEG400 (pH 3.5) solution for p.o. administration. Compound 2 was administered for 5 days.
(§1) Compound 2 was administered daily from Day 1 to Day 5. All mice were euthanized 1 hour after the last dose administration on Day 5. Heart and skin were harvested and snap frozen in liquid nitrogen, and plasma (EDTA) was collected for bioanalysis. Total RNA was isolated and ISG score for each sample was determined as in Part IIIa of Example 108.
Fifteen 6-8 week old B6/JGpt-Trex1em1Cd1194/Gpt mice were acclimated to the lab for at least 5 days. Compound 67 was prepared daily in a 20% PEG400 (pH 3.5) solution for p.o. administration. […] was administered for 5 days.
as §1, with “67” for “2”

Nc1ccn([C@H]2C[C@H](O)[C@](CO)(CCl)O2)c(=O)n1 [Compound 2, 4-amino-1-((2R,4S,5R)-5-(chloromethyl)-4-hydroxy-5-(hydroxymethyl)tetrahydrofuran-2-yl)pyrimidin-2(1H)-one]
change in ISG response (IRF7 and MX1), FIGS. 2B and 2C [1]: shows a change in the ISG response | ISG score in the heart and skin [2]: lowers the ISG score

Nc1nc(=O)n([C@@H]2O[C@@](CO)(CCl)[C@@H](O)[C@@H]2F)cc1F [Compound 67, 4-amino-1-[(2R,3S,4R,5R)-5-(chloromethyl)-3-fluoro-4-hydroxy-5-(hydroxymethyl)oxolan-2-yl]-5-fluoropyrimidin-2-one]
ISG score in the heart and skin [2]: lowers the ISG score
